According to ChEMBL document CHEMBL1201861, “Genomics of Drug Sensitity in Cancer screening data, Wellcome Trust Sanger Institute”:

What was measured:
Assay in all cases: cells
SK-N-DZ = format: functional, cell-based, Homo sapiens; details: Homo sapiens, SK-N-DZ;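 further: growth inhibition of the cancer cell line, read out through a viability assay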
Description: SANGER: Inhibition of human SK-N-DZ cell growth in a cell viability assay.

NB12 = format: functional, cell-based, Homo sapiens; details: Homo sapiens, NB12;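 further: growth inhibition of human NB12 cells, read out by a cell viability assay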
Description: SANGER: Inhibition of human NB12 cell growth in a cell viability assay.

NOS-1 = format: functional, cell-based, Homo sapiens; details: Homo sapiens, NOS-1;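 further: growth inhibition of the human NOS-1 cell line, read out with a cell viability assay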
Description: SANGER: Inhibition of human NOS-1 cell growth in a cell viability assay.

KARPAS-299 = format: functional, cell-based, Homo sapiens; details: Homo sapiens, KARPAS-299
Description: SANGER: Inhibition of human KARPAS-299 cell growth in a cell viability assay.

HDLM-2 = format: functional, cell-based, Homo sapiens; details: Homo sapiens, HDLM-2;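 further: cell viability assay measuring suppression of HDLM-2 proliferation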
Description: SANGER: Inhibition of human HDLM-2 cell growth in a cell viability assay.

TE-6 = format: functional, cell-based, Homo sapiens; details: Homo sapiens, TE-6;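 further: growth inhibition of TE-6 cells, read out with a cell viability assay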
Description: SANGER: Inhibition of human TE-6 cell growth in a cell viability assay.

no-11 = format: functional, cell-based, Homo sapiens; details: Homo sapiens;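 further: growth inhibition of human NO-11 cells, read out with a cell viability assay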
Description: SANGER: Inhibition of human no-11 cell growth in a cell viability assay.

697 = format: functional, cell-based, Homo sapiens; details: Homo sapiens
Description: SANGER: Inhibition of human 697 cell growth in a cell viability assay.

ALL-PO = format: functional, cell-based, Homo sapiens; details: Homo sapiens, ALL-PO;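 further: growth inhibition of ALL-PO cells, read out by a cell viability assay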
Description: SANGER: Inhibition of human ALL-PO cell growth in a cell viability assay.

MOLT-4 = format: functional, cell-based, Homo sapiens; details: Homo sapiens, MOLT-4;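 further: growth inhibition of MOLT-4 cells, determined with a cell viability readout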
Description: SANGER: Inhibition of human MOLT-4 cell growth in a cell viability assay.

OCI-AML2 = format: functional, cell-based, Homo sapiens; details: Homo sapiens, OCI-AML2;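 further: growth inhibition of OCI-AML2 cells, read out with a cell viability assay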
Description: SANGER: Inhibition of human OCI-AML2 cell growth in a cell viability assay.

UACC-257 = format: functional, cell-based, Homo sapiens; details: Homo sapiens, UACC-257
Description: SANGER: Inhibition of human UACC-257 cell growth in a cell viability assay.

VA-ES-BJ = format: functional, cell-based, Homo sapiens; details: Homo sapiens, VA-ES-BJ;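 further: growth inhibition of the VA-ES-BJ cell line, read out by a cell viability assay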
Description: SANGER: Inhibition of human VA-ES-BJ cell growth in a cell viability assay.

JVM-2 = format: functional, cell-based, Homo sapiens; details: Homo sapiens, JVM-2;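 further: growth inhibition of JVM-2 cells determined by a cell viability assay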
Description: SANGER: Inhibition of human JVM-2 cell growth in a cell viability assay.

SH-4 = format: functional, cell-based, Homo sapiens; details: Homo sapiens, SH-4;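 further: growth inhibition of SH-4 cells, read out with a cell viability assay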
Description: SANGER: Inhibition of human SH-4 cell growth in a cell viability assay.

MV4-11 = format: functional, cell-based, Homo sapiens, MV-4-11; details: Homo sapiens, MV4-11;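 further: cell viability readout measuring growth inhibition of human MV-4-11 cells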
Description: SANGER: Inhibition of human MV-4-11 cell growth in a cell viability assay.

NTERA-2-cl-D1 = format: functional, cell-based, Homo sapiens; details: Homo sapiens, NTERA-2-cl-D1;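 further: inhibition of cell growth, measured with a cell viability assay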
Description: SANGER: Inhibition of human NTERA-S-cl-D1 cell growth in a cell viability assay.

NCI-H1304 = format: functional, cell-based, Homo sapiens; details: Homo sapiens, NCI-H1304;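 further: growth inhibition of the cancer cell line, measured in a cell viability assay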
Description: SANGER: Inhibition of human NCI-H1304 cell growth in a cell viability assay.

LB2241-RCC = format: functional, cell-based, Homo sapiens; details: Homo sapiens, LB2241-RCC;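 further: cell viability assay measuring how strongly the cultured human renal carcinoma line is prevented from growing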
Description: SANGER: Inhibition of human LB2241-RCC cell growth in a cell viability assay.

MZ7-mel = format: functional, cell-based, Homo sapiens; details: Homo sapiens, MZ7-mel;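 further: growth inhibition of human MZ7-mel cells, measured by a cell viability assay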
Description: SANGER: Inhibition of human MZ7-mel cell growth in a cell viability assay.

SNU-5 = format: functional, cell-based, Homo sapiens; details: Homo sapiens, SNU-5;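 further: cell viability readout used to measure growth inhibition in human NCI-SNU-5 cells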
Description: SANGER: Inhibition of human NCI-SNU-5 cell growth in a cell viability assay.

RS4-11 = format: functional, cell-based, Homo sapiens; details: Homo sapiens, RS4-11;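 further: growth inhibition of RS4-11 cells, read out by a cell viability assay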
Description: SANGER: Inhibition of human RS4-11 cell growth in a cell viability assay.

ACN = format: functional, cell-based, Homo sapiens; details: Homo sapiens, ACN;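 further: growth inhibition of the human ACN cell line, read out via cell viability testing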
Description: SANGER: Inhibition of human ACN cell growth in a cell viability assay.

TGBC24TKB = format: functional, cell-based, Homo sapiens; details: Homo sapiens, TGBC24TKB;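 further: growth inhibition of human TGBC24TKB cells, read out with a cell viability assay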
Description: SANGER: Inhibition of human TGBC24TKB cell growth in a cell viability assay.

LB996-RCC = format: functional, cell-based, Homo sapiens; details: Homo sapiens, LB996-RCC
Description: SANGER: Inhibition of human LB996-RCC cell growth in a cell viability assay.

MSTO-211H = format: functional, cell-based, Homo sapiens; details: Homo sapiens, MSTO-211H
Description: SANGER: Inhibition of human MSTO-211H cell growth in a cell viability assay.

CAS-1 = format: functional, cell-based, Homo sapiens; details: Homo sapiens, CAS-1;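 further: growth inhibition of CAS-1 cells, measured with a cell viability assay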
Description: SANGER: Inhibition of human CAS-1 cell growth in a cell viability assay.

D-263MG = format: functional, cell-based, Homo sapiens; details: Homo sapiens, D-263MG
Description: SANGER: Inhibition of human D-263MG cell growth in a cell viability assay.

TE-8 = format: functional, cell-based, Homo sapiens; details: Homo sapiens, TE-8;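 further: growth inhibition of TE-8 cells, measured with a cell viability readout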
Description: SANGER: Inhibition of human TE-8 cell growth in a cell viability assay.

MHH-PREB-1 = format: functional, cell-based, Homo sapiens; details: Homo sapiens, MHH-PREB-1;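 further: cell viability assay measuring inhibition of proliferation of human MHH-PREB-1 cells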
Description: SANGER: Inhibition of human MHH-PREB-1 cell growth in a cell viability assay.

SW 954 = format: functional, cell-based, Homo sapiens; details: Homo sapiens, SW 954;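 further: growth inhibition of SW954 human cancer cells, read out as cell viability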
Description: SANGER: Inhibition of human SW954 cell growth in a cell viability assay.

SK-NEP-1 = format: functional, cell-based, Homo sapiens; details: Homo sapiens, SK-NEP-1;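 further: growth inhibition of human SK-NEP-1 cells, read out by a cell viability assay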
Description: SANGER: Inhibition of human SK-NEP-1 cell growth in a cell viability assay.

TE-1 = format: functional, cell-based, Homo sapiens; details: Homo sapiens, TE-1;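 further: growth inhibition of the human TE-1 cell line, read out with a cell viability assay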
Description: SANGER: Inhibition of human TE-1 cell growth in a cell viability assay.

NKM-1 = format: functional, cell-based, Homo sapiens; details: Homo sapiens, NKM-1;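 further: growth inhibition of NKM-1 cells, read out with a cell viability assay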
Description: SANGER: Inhibition of human NKM-1 cell growth in a cell viability assay.

KS-1 = format: functional, cell-based, Homo sapiens; details: Homo sapiens, KS-1;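 further: growth inhibition of KS-1 cells, read out with a cell viability assay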
Description: SANGER: Inhibition of human KS-1 cell growth in a cell viability assay.

EM-2 = format: functional, cell-based, Homo sapiens; details: Homo sapiens, EM-2;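 further: growth inhibition of EM-2 cells, read out with a cell viability assay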
Description: SANGER: Inhibition of human EM-2 cell growth in a cell viability assay.

NMC-G1 = format: functional, cell-based, Homo sapiens; details: Homo sapiens, NMC-G1;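 further: growth inhibition of the NMC-G1 cell line, measured with a cell viability read-out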
Description: SANGER: Inhibition of human NMC-G1 cell growth in a cell viability assay.

GI-ME-N = format: functional, cell-based, Homo sapiens; details: Homo sapiens, GI-ME-N;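 further: growth inhibition of human GI-ME-N cells, read out with a cell viability assay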
Description: SANGER: Inhibition of human GI-ME-N cell growth in a cell viability assay.

DU-4475 = format: functional, cell-based, Homo sapiens; details: Homo sapiens, DU-4475
Description: SANGER: Inhibition of human DU-4475 cell growth in a cell viability assay.

LB831-BLC = format: functional, cell-based, Homo sapiens; details: Homo sapiens, LB831-BLC;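 further: growth inhibition of LB831-BLC cells, read out with a cell viability assay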
Description: SANGER: Inhibition of human LB831-BLC cell growth in a cell viability assay.

NCI-H1155 = format: functional, cell-based, Homo sapiens; details: Homo sapiens, NCI-H1155;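 further: cell growth inhibition measured by a viability assay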
Description: SANGER: Inhibition of human NCI-H1155 cell growth in a cell viability assay.

COLO-684 = format: functional, cell-based, Homo sapiens; details: Homo sapiens, COLO-684
Description: SANGER: Inhibition of human COLO-684 cell growth in a cell viability assay.

NCI-H1395 = format: functional, cell-based, Homo sapiens; details: Homo sapiens, NCI-H1395;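 further: cell viability assay read-out quantifying reduced proliferation of human NCI-H1395 cells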
Description: SANGER: Inhibition of human NCI-H1395 cell growth in a cell viability assay.

BT-474 = format: functional, cell-based, Homo sapiens; details: Homo sapiens, BT-474
Description: SANGER: Inhibition of human BT-474 cell growth in a cell viability assay.

MEG-01 = format: functional, cell-based, Homo sapiens; details: Homo sapiens, MEG-01;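 further: growth inhibition of MEG-01 cells, read out by a cell viability assay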
Description: SANGER: Inhibition of human MEG-01 cell growth in a cell viability assay.

SW 962 = format: functional, cell-based, Homo sapiens; details: Homo sapiens, SW 962;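 further: growth inhibition of human SW962 cells, read out by a cell viability assay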
Description: SANGER: Inhibition of human SW962 cell growth in a cell viability assay.

CCN(CC)CCCCNc1ncc2cc(-c3cc(OC)cc(OC)c3)c(NC(=O)NC(C)(C)C)nc2n1 [PD-173074]
IC50 (SK-N-DZ): > 2000 nM
IC50 (NB12): > 2000 nM
IC50 (NOS-1): > 2000 nM
IC50 (KARPAS-299): > 2000 nM
IC50 (HDLM-2): > 2000 nM
IC50 (TE-6): > 2000 nM
IC50 (no-11): > 2000 nM
IC50 697: > 2000 nM
IC50 (ALL-PO): > 2000 nM
IC50 (MOLT-4): > 2000 nM
IC50 (OCI-AML2): > 2000 nM
IC50 (UACC-257): > 2000 nM
IC50 (VA-ES-BJ): > 2000 nM
IC50 (JVM-2): > 2000 nM
IC50 (SH-4): > 2000 nM
IC50 (MV4-11): > 2000 nM
IC50 (NTERA-2-cl-D1): > 2000 nM
IC50 (NCI-H1304): > 2000 nM
IC50 (LB2241-RCC): > 2000 nM
IC50 (MZ7-mel): > 2000 nM
IC50 (SNU-5): > 2000 nM
IC50 (RS4-11): 1340 nM
IC50 (ACN): > 2000 nM
IC50 (TGBC24TKB): > 2000 nM
IC50 (LB996-RCC): > 2000 nM
IC50 (MSTO-211H): 1470 nM
IC50 (CAS-1): > 2000 nM
IC50 (D-263MG): 712 nM
IC50 (TE-8): > 2000 nM
IC50 (MHH-PREB-1): > 2000 nM
IC50 (SW 954): > 2000 nM
IC50 (SK-NEP-1): > 2000 nM
IC50 (TE-1): > 2000 nM
IC50 (NKM-1): > 2000 nM
IC50 (KS-1): > 2000 nM
IC50 (EM-2): > 2000 nM
IC50 (NMC-G1): > 2000 nM
IC50 (GI-ME-N): > 2000 nM
IC50 (DU-4475): > 2000 nM
IC50 (LB831-BLC): > 2000 nM
IC50 (NCI-H1155): > 2000 nM
IC50 (COLO-684): > 2000 nM
IC50 (NCI-H1395): > 2000 nM
IC50 (BT-474): > 2000 nM
IC50 (MEG-01): > 2000 nM
IC50 (SW 962): 790 nM

COc1cc2c(Nc3ccc(NC(=O)c4ccccc4)cc3)ncnc2cc1OCCCN1CCOCC1
IC50 (SK-N-DZ): > 4000 nM
IC50 (NB12): > 4000 nM
IC50 (NOS-1): > 4000 nM
IC50 (KARPAS-299): > 4000 nM
IC50 (HDLM-2): > 4000 nM
IC50 (TE-6): > 4000 nM
IC50 (no-11): > 4000 nM
IC50 697: 739 nM
IC50 (ALL-PO): 2670 nM
IC50 (MOLT-4): 900 nM
IC50 (OCI-AML2): 3680 nM
IC50 (UACC-257): > 4000 nM
IC50 (VA-ES-BJ): 2790 nM
IC50 (JVM-2): > 4000 nM
IC50 (SH-4): > 4000 nM
IC50 (MV4-11): 796 nM
IC50 (NTERA-2-cl-D1): > 4000 nM
IC50 (NCI-H1304): > 4000 nM
IC50 (LB2241-RCC): 1040 nM
IC50 (MZ7-mel): > 4000 nM
IC50 (SNU-5): > 4000 nM
IC50 (RS4-11): 554 nM
IC50 (ACN): > 4000 nM
IC50 (TGBC24TKB): > 4000 nM
IC50 (LB996-RCC): > 4000 nM
IC50 (MSTO-211H): > 4000 nM
IC50 (CAS-1): > 4000 nM
IC50 (D-263MG): 2710 nM
IC50 (TE-8): 2490 nM
IC50 (MHH-PREB-1): > 4000 nM
IC50 (SW 954): 836 nM
IC50 (SK-NEP-1): 1360 nM
IC50 (TE-1): > 4000 nM
IC50 (NKM-1): 1170 nM
IC50 (KS-1): > 4000 nM
IC50 (EM-2): 1420 nM
IC50 (NMC-G1): > 4000 nM
IC50 (GI-ME-N): > 4000 nM
IC50 (DU-4475): > 4000 nM
IC50 (LB831-BLC): > 4000 nM
IC50 (NCI-H1155): 3040 nM
IC50 (COLO-684): > 4000 nM
IC50 (NCI-H1395): > 4000 nM
IC50 (BT-474): > 4000 nM
IC50 (MEG-01): > 4000 nM
IC50 (SW 962): > 4000 nM

Cn1cnc2c(F)c(Nc3ccc(Br)cc3Cl)c(C(=O)NOCCO)cc21 [SELUMETINIB]
IC50 (SK-N-DZ): > 4000 nM
IC50 (NB12): > 4000 nM
IC50 (NOS-1): > 4000 nM
IC50 (KARPAS-299): > 4000 nM
IC50 (HDLM-2): > 4000 nM
IC50 (TE-6): > 4000 nM
IC50 (no-11): > 4000 nM
IC50 697: > 4000 nM
IC50 (ALL-PO): > 4000 nM
IC50 (MOLT-4): > 4000 nM
IC50 (OCI-AML2): > 4000 nM
IC50 (UACC-257): 322 nM
IC50 (VA-ES-BJ): > 4000 nM
IC50 (JVM-2): > 4000 nM
IC50 (SH-4): 166 nM
IC50 (MV4-11): 575 nM
IC50 (NTERA-2-cl-D1): > 4000 nM
IC50 (NCI-H1304): > 4000 nM
IC50 (LB2241-RCC): 790 nM
IC50 (MZ7-mel): > 4000 nM
IC50 (SNU-5): 3610 nM
IC50 (RS4-11): > 4000 nM
IC50 (ACN): 567 nM
IC50 (TGBC24TKB): > 4000 nM
IC50 (LB996-RCC): 3950 nM
IC50 (MSTO-211H): > 4000 nM
IC50 (CAS-1): > 4000 nM
IC50 (D-263MG): 1180 nM
IC50 (TE-8): > 4000 nM
IC50 (MHH-PREB-1): > 4000 nM
IC50 (SW 954): 896 nM
IC50 (SK-NEP-1): > 4000 nM
IC50 (TE-1): > 4000 nM
IC50 (NKM-1): 386 nM
IC50 (KS-1): > 4000 nM
IC50 (EM-2): 512 nM
IC50 (NMC-G1): > 4000 nM
IC50 (GI-ME-N): > 4000 nM
IC50 (DU-4475): 33.7 nM
IC50 (LB831-BLC): > 4000 nM
IC50 (NCI-H1155): > 4000 nM
IC50 (COLO-684): > 4000 nM
IC50 (NCI-H1395): > 4000 nM
IC50 (BT-474): > 4000 nM
IC50 (MEG-01): 1630 nM
IC50 (SW 962): > 4000 nM
